pIC50: −log10 of the molar value. Active and inactive are the calls of the source. The rule behind the calls is not given here.
What was measured:
HepG2 [1] = experiment: Antiproliferative activity against human HepG2 cells assessed as inhibition of cell growth; type: functional, cell-based
U2OS [2] = experiment: Antiproliferative activity against human U2OS cells assessed as inhibition of cell growth; type: functional, cell-based
MCF7 [3] = experiment: Antiproliferative activity against human MCF7 cells assessed as inhibition of cell growth; type: functional, cell-based
[4] = Cytotoxicity against human WI-38 cells assessed as inhibition of cell growth; type: toxicity, cell-based
HepG2 [5] = experiment: Antiproliferative activity against human HepG2 cells assessed as change in cell viability at IC50 concentration; type: functional, cell-based
U2OS [6] = experiment: Antiproliferative activity against human U2OS cells assessed as change in cell viability at IC50 concentration; type: functional, cell-based
MCF7 [7] = experiment: Antiproliferative activity against human MCF7 cells assessed as change in cell viability at IC50 concentration; type: functional, cell-based
HepG2 [8] = experiment: Induction of morphological changes in human HepG2 cells assessed as cell detachment at IC50 concentration; type: functional, cell-based
U2OS [9] = experiment: Induction of morphological changes in human U2OS cells assessed as cell detachment at IC50 concentration; type: functional, cell-based
MCF7 [10] = experiment: Induction of morphological changes in human MCF7 cells assessed as cell detachment at IC50 concentration; type: functional, cell-based
HepG2 [11] = experiment: Induction of morphological changes in human HepG2 cells assessed as cell enlargement with vacuolated cytoplasm at IC50 concentration; type: functional, cell-based
U2OS [12] = experiment: Induction of morphological changes in human U2OS cells assessed as cell enlargement with vacuolated cytoplasm at IC50 concentration; type: functional, cell-based
MCF7 [13] = experiment: Induction of morphological changes in human MCF7 cells assessed as cell enlargement with vacuolated cytoplasm at IC50 concentration; type: functional, cell-based
HepG2 [14] = experiment: Induction of morphological changes in human HepG2 cells assessed as appearance of dense nuclei at IC50 concentration; type: functional, cell-based
U2OS [15] = experiment: Induction of morphological changes in human U2OS cells assessed as appearance of dense nuclei at IC50 concentration; type: functional, cell-based
MCF7 [16] = experiment: Induction of morphological changes in human MCF7 cells assessed as appearance of dense nuclei at IC50 concentration; type: functional, cell-based
HepG2 [17] = experiment: Induction of morphological changes in human HepG2 cells assessed as appearance of vesicular nuclei at IC50 concentration; type: functional, cell-based
U2OS [18] = experiment: Induction of morphological changes in human U2OS cells assessed as appearance of vesicular nuclei at IC50 concentration; type: functional, cell-based
MCF7 [19] = experiment: Induction of morphological changes in human MCF7 cells assessed as appearance of vesicular nuclei at IC50 concentration; type: functional, cell-based
HepG2 [20] = experiment: Induction of morphological changes in human HepG2 cells assessed as appearance of hyper chromatic nuclei at IC50 concentration; type: functional, cell-based
U2OS [21] = experiment: Induction of morphological changes in human U2OS cells assessed as appearance of hyper chromatic nuclei at IC50 concentration; type: functional, cell-based
MCF7 [22] = experiment: Induction of morphological changes in human MCF7 cells assessed as appearance of hyper chromatic nuclei at IC50 concentration; type: functional, cell-based
HepG2 [23] = experiment: Induction of morphological changes in human HepG2 cells assessed as appearance of degenerative features at IC50 concentration; type: functional, cell-based
U2OS [24] = experiment: Induction of morphological changes in human U2OS cells assessed as appearance of degenerative features at IC50 concentration; type: functional, cell-based
MCF7 [25] = experiment: Induction of morphological changes in human MCF7 cells assessed as appearance of degenerative features at IC50 concentration; type: functional, cell-based
HepG2 [26] = experiment: Inhibition of cell migration in human HepG2 cells assessed as wound confluence at IC50 concentration incubated for 4 hrs by scratch wound assay (reference value: 19.38 +/- 0.12 %); type: functional; set-up: scale not given: the % may be the effect or the level left
HepG2 [27] = experiment: Inhibition of cell migration in human HepG2 cells assessed as wound confluence at IC50 concentration incubated for 10 hrs by scratch wound assay (reference value: 32.01 +/- 0.67 %); type: functional; set-up: scale not given: the % may be the effect or the level left
HepG2 [28] = experiment: Inhibition of cell migration in human HepG2 cells assessed as wound confluence at IC50 concentration incubated for 24 hrs by scratch wound assay (reference value: 98.01 +/- 0.14 %); type: functional; set-up: scale not given: the % may be the effect or the level left
HepG2 [29] = experiment: Cell cycle arrest in human HepG2 cells assessed as accumulation of cells at G0/G1 phase at IC50 concentration incubated for 48 hrs by PI staining based flow cytometric analysis (reference value: 58.2 %); type: functional
HepG2 [30] = experiment: Cell cycle arrest in human HepG2 cells assessed as accumulation of cells at S phase at IC50 concentration incubated for 48 hrs by PI staining based flow cytometric analysis (reference value: 21.0 %); type: functional
HepG2 [31] = experiment: Cell cycle arrest in human HepG2 cells assessed as accumulation of cells at G2/M phase at IC50 concentration incubated for 48 hrs by PI staining based flow cytometric analysis (reference value: 19.4 %); type: functional
HepG2 [32] = experiment: Induction of apoptosis in human HepG2 cells assessed as viable cells at IC50 concentration by annexin V-FITC/7-AAD staining based flow cytometric analysis (reference value: 99.7 %); type: functional
HepG2 [33] = experiment: Induction of apoptosis in human HepG2 cells assessed as early apoptotic cells at IC50 concentration by annexin V-FITC/7-AAD staining based flow cytometric analysis (reference value: 0.0 %); type: functional
HepG2 [34] = experiment: Induction of apoptosis in human HepG2 cells assessed as late apoptotic cells at IC50 concentration by annexin V-FITC/7-AAD staining based flow cytometric analysis (reference value: 0.3 %); type: functional
HepG2 [35] = experiment: Induction of apoptosis in human HepG2 cells assessed as late apoptotic cells at IC50 concentration by annexin V-FITC/7-AAD staining based flow cytometric analysis (reference value: 0.0 %); type: functional
HepG2 [36] = experiment: Induction of apoptosis in human HepG2 cells assessed as apoptotic cells at IC50 concentration by annexin V-FITC/7-AAD staining based flow cytometric analysis (reference value: 0.28 %); type: functional
HepG2 [37] = experiment: Induction of apoptosis in human HepG2 cells assessed as fold increase in p21 level by Western blot analysis; type: functional
HepG2 [38] = experiment: Induction of apoptosis in human HepG2 cells assessed as fold increase in p27 level by Western blot analysis; type: functional
HepG2 [39] = experiment: Induction of apoptosis in human HepG2 cells assessed as fold increase in p53 level by Western blot analysis; type: functional
[40] = Inhibition of cell migration in human […] cells at IC50 concentration incubated for 24 hrs relative to control; type: functional

Row | SMILES | pIC50 (HepG2 [1]) | pIC50 (U2OS [2]) | pIC50 (MCF7 [3]) | pIC50 [4] | Activity (HepG2 [5]) | Activity (U2OS [6]) | Activity (MCF7 [7]) | Activity (HepG2 [8]) | Activity (U2OS [9]) | Activity (MCF7 [10]) | Activity (HepG2 [11]) | Activity (U2OS [12]) | Activity (MCF7 [13]) | Activity (HepG2 [14]) | Activity (U2OS [15]) | Activity (MCF7 [16]) | Activity (HepG2 [17]) | Activity (U2OS [18]) | Activity (MCF7 [19]) | Activity (HepG2 [20]) | other results
1 | N=C(N)c1ccc(-c2ccc(-c3ccc(Cl)cc3)o2)nc1 | 5.81 | 5.76 | 5.79 | 4.11 | Active | Active | Active | Active | Active | Active | Active | Active | Active | Active | Active | Active | Active | Active | Active | Active | Activity (U2OS [21]): Active; Activity (MCF7 [22]): Active; Activity (HepG2 [23]): Active; Activity (U2OS [24]): Active; Activity (MCF7 [25]): Active; Activity (HepG2 [26]): 14.19%; Activity (HepG2 [27]): 33.72%; Activity (HepG2 [28]): 46.65%; Activity (HepG2 [29]): 9.2%; Activity (HepG2 [30]): 43.6%; Activity (HepG2 [31]): 47.1%; Activity (HepG2 [32]): 28.7%; Activity (HepG2 [33]): 54%; Activity (HepG2 [34]): 16.9%; Activity (HepG2 [35]): 0.4%; Activity (HepG2 [36]): 70.5%; fold change (FC) (HepG2 [37]): ~3; fold change (FC) (HepG2 [38]): ~2.3; fold change (FC) (HepG2 [39]): ~2.5; inhibition (INH) [40]: ~55%
2 | N=C(N)c1ccc(-c2ccc(-c3ccc(F)cc3)o2)nc1 | 5.97 | 5.76 | 5.80 | 4.05 | Active | Active | Active | Active | Active | Active | Active | Active | Active | Active | Active | Active | Active | Active | Active | Active | Activity (U2OS [21]): Active; Activity (MCF7 [22]): Active; Activity (HepG2 [23]): Active; Activity (U2OS [24]): Active; Activity (MCF7 [25]): Active; Activity (HepG2 [26]): 14.07%; Activity (HepG2 [27]): 32.89%; Activity (HepG2 [28]): 42.09%; Activity (HepG2 [29]): 19.4%; Activity (HepG2 [30]): 39.1%; Activity (HepG2 [31]): 41.4%; Activity (HepG2 [32]): 41.9%; Activity (HepG2 [33]): 47.4%; Activity (HepG2 [34]): 10.6%; Activity (HepG2 [35]): 0.1%; Activity (HepG2 [36]): 59.3%; fold change (FC) (HepG2 [37]): ~5; fold change (FC) (HepG2 [38]): ~3.1; fold change (FC) (HepG2 [39]): ~2.5; inhibition (INH) [40]: ~55%
3 | N=C(N)c1ccc(-c2ccc(-c3cc(Cl)cc(Cl)c3)o2)nc1 | 5.73 | 5.74 | 5.77 | 4.00 | Active | Active | Active | Active | Active | Active | Active | Active | Active | Active | Active | Active | Active | Active | Active | Active | Activity (U2OS [21]): Active; Activity (MCF7 [22]): Active; Activity (HepG2 [23]): Active; Activity (U2OS [24]): Active; Activity (MCF7 [25]): Active; Activity (HepG2 [26]): 14.4%; Activity (HepG2 [27]): 47.49%; Activity (HepG2 [28]): 64.83%; Activity (HepG2 [29]): 59.6%; Activity (HepG2 [30]): 19.1%; Activity (HepG2 [31]): 20.6%; Activity (HepG2 [32]): 31.5%; Activity (HepG2 [33]): 54%; Activity (HepG2 [34]): 14.3%; Activity (HepG2 [35]): 0.1%; Activity (HepG2 [36]): 66.1%; fold change (FC) (HepG2 [39]): ~2.5

From ChEMBL document CHEMBL5579789, “Azafuramidines as potential anticancer Agents: Pro-apoptotic profile and cell cycle arrest” (Bioorg Med Chem Lett, 2024)
